Assay results: publication PMC6305410, “High-Throughput Screening for Bacterial Glycosyltransferase Inhibitors” (Frontiers in Cellular and Infection Microbiology, 2018)

Target: T1, NleB1 (Escherichia coli, UniProt Q8XBX8)
T1 construct: GST-EHEC-NleB1 in pET42a (GST/His tagged), expressed in E. coli BL21 (DE3), nickel purified; some tag cleavage noted
Conditions: inhibitor; for % NleB1 inhibition (µM compound) / 10: 10 µM; for % NleB1 inhibition (µM compound) / 20: 20 µM; for % NleB1 inhibition (µM compound) / 40: 40 µM; for % NleB1 inhibition (µM compound) / 80: 80 µM; for % NleB1 inhibition (µM compound) / 160: 160 µM

CCCCCC(=O)N1C[C@H](n2cc(COC(=O)c3ccccc3)nn2)[C@@H](O)C[C@@H]1c1ccc(Cl)cc1 [KUC105040N]
% NleB1 inhibition (µM compound) / 10: 9.1% | % NleB1 inhibition (µM compound) / 20: 14.5% | % NleB1 inhibition (µM compound) / 40: 18.9% | % NleB1 inhibition (µM compound) / 80: 40.4% | % NleB1 inhibition (µM compound) / 160: 50.7%

COCOCCn1cc(CN2CCS(=O)(=O)N(Cc3ccc(-c4ccc(OC)nc4)cc3)C(C(C)C)C2=O)nn1 (centres unmarked) [KUC105133N]
% NleB1 inhibition (µM compound) / 10: 30.4% | % NleB1 inhibition (µM compound) / 20: 40.4% | % NleB1 inhibition (µM compound) / 40: 45.5% | % NleB1 inhibition (µM compound) / 80: 62.2% | % NleB1 inhibition (µM compound) / 160: 75.8%

COc1ccc(-c2ccc(CN3C(C(C)C)C(=O)N(Cc4cn(CCC5OCCO5)nn4)CCS3(=O)=O)cc2)cn1 (centres unmarked) [KUC105137N]
% NleB1 inhibition (µM compound) / 10: 13.7% | % NleB1 inhibition (µM compound) / 20: 25.7% | % NleB1 inhibition (µM compound) / 40: 41.5% | % NleB1 inhibition (µM compound) / 80: 64.5% | % NleB1 inhibition (µM compound) / 160: 79.7%

COCOCCn1cc(CN2CCS(=O)(=O)N(Cc3ccc(-c4ccc(F)nc4)cc3)C(CC(C)C)C2=O)nn1 (centres unmarked) [KUC105149N]
% NleB1 inhibition (µM compound) / 10: 34.4% | % NleB1 inhibition (µM compound) / 20: 38.8% | % NleB1 inhibition (µM compound) / 40: 42.6% | % NleB1 inhibition (µM compound) / 80: 55.9% | % NleB1 inhibition (µM compound) / 160: 69.5%

CC(C)CC1C(=O)N(Cc2cn(CCC3OCCCO3)nn2)CCS(=O)(=O)N1Cc1ccc(-c2ccc(F)nc2)cc1 (centres unmarked) [KUC105151N]
% NleB1 inhibition (µM compound) / 10: 0.6% | % NleB1 inhibition (µM compound) / 20: 15.1% | % NleB1 inhibition (µM compound) / 40: 31.9% | % NleB1 inhibition (µM compound) / 80: 50.8% | % NleB1 inhibition (µM compound) / 160: 53.0%

CCCCN1CC(COCc2ccccc2)Oc2cccc(Oc3ccc(F)cc3OC)c2S1(=O)=O (centres unmarked) [KUC106008N]
% NleB1 inhibition (µM compound) / 10: 21.4% | % NleB1 inhibition (µM compound) / 20: 22.4% | % NleB1 inhibition (µM compound) / 40: 20.7% | % NleB1 inhibition (µM compound) / 80: 31.6% | % NleB1 inhibition (µM compound) / 160: 55.9%

O=C(c1ccc([N+](=O)[O-])cc1)N1[C@H](COCc2ccccc2)C=CS1(=O)=O [KUC107029N]
% NleB1 inhibition (µM compound) / 10: 30.6% | % NleB1 inhibition (µM compound) / 20: 41.5% | % NleB1 inhibition (µM compound) / 40: 43.4% | % NleB1 inhibition (µM compound) / 80: 48.6% | % NleB1 inhibition (µM compound) / 160: 43.4%

CN(C)CCN1CCN(C2CN(Cc3cn(Cc4ccc(F)cc4)nn3)S(=O)(=O)C2)CC1 (centres unmarked) [KUC108117N]
% NleB1 inhibition (µM compound) / 10: 5.6% | % NleB1 inhibition (µM compound) / 20: 23.7% | % NleB1 inhibition (µM compound) / 40: 25.1% | % NleB1 inhibition (µM compound) / 80: 21.8% | % NleB1 inhibition (µM compound) / 160: 21.8%

CN1CCC(N2CCN(C3CN(Cc4cn(Cc5cccc(Cl)c5)nn4)S(=O)(=O)C3)CC2)CC1 (centres unmarked) [KUC108133N]
% NleB1 inhibition (µM compound) / 10: 4.1% | % NleB1 inhibition (µM compound) / 20: 18.2% | % NleB1 inhibition (µM compound) / 40: 22.3% | % NleB1 inhibition (µM compound) / 80: 18.0% | % NleB1 inhibition (µM compound) / 160: 18.2%

O=S1(=O)CC(N2CCN(Cc3ccccc3F)CC2)CN1Cc1cn(Cc2cccc(Cl)c2)nn1 (centres unmarked) [KUC108236N]
% NleB1 inhibition (µM compound) / 10: 13.5% | % NleB1 inhibition (µM compound) / 20: 26.7% | % NleB1 inhibition (µM compound) / 40: 13.1% | % NleB1 inhibition (µM compound) / 80: 12.7% | % NleB1 inhibition (µM compound) / 160: 18.4%

C[C@H](c1ccccc1)N1C[C@@H](COCc2ccccc2)Oc2cc(N3CC[C@@H](O)C3)ccc2S1(=O)=O [KUC108511N]
% NleB1 inhibition (µM compound) / 10: 33.8% | % NleB1 inhibition (µM compound) / 20: 33.0% | % NleB1 inhibition (µM compound) / 40: 29.9% | % NleB1 inhibition (µM compound) / 80: 49.8% | % NleB1 inhibition (µM compound) / 160: 63.7%

Cc1ccc2c(c1)C1CS(=O)(=O)N(C3CCCC3)C(=O)N1C2 (centres unmarked) [KUC109525N]
% NleB1 inhibition (µM compound) / 10: 26.3% | % NleB1 inhibition (µM compound) / 20: 31.5% | % NleB1 inhibition (µM compound) / 40: 20.9% | % NleB1 inhibition (µM compound) / 80: 19.5% | % NleB1 inhibition (µM compound) / 160: 29.3%

COC(=O)[C@H](C(C)C)N1Cc2nnn(Cc3ccccc3)c2-c2ccccc2S1(=O)=O [KUC110604N]
% NleB1 inhibition (µM compound) / 10: 4.8% | % NleB1 inhibition (µM compound) / 20: 15.1% | % NleB1 inhibition (µM compound) / 40: 17.9% | % NleB1 inhibition (µM compound) / 80: 21.1% | % NleB1 inhibition (µM compound) / 160: 17.9%

C[C@H]1CC[C@]2(CCC(=O)N2CCCOC(=O)c2ccccc2)CC1 [KUC110967N]
% NleB1 inhibition (µM compound) / 10: 45.2% | % NleB1 inhibition (µM compound) / 20: 53.8% | % NleB1 inhibition (µM compound) / 40: 62.0% | % NleB1 inhibition (µM compound) / 80: 71.4% | % NleB1 inhibition (µM compound) / 160: 78.5%

Cc1ccc([C@H]2CC[C@]3(CCC(=O)N3CCOC(=O)Nc3cccc(C#N)c3)CC2)cc1 [KUC111012N]
% NleB1 inhibition (µM compound) / 10: 17.3% | % NleB1 inhibition (µM compound) / 20: 25.1% | % NleB1 inhibition (µM compound) / 40: 22.4% | % NleB1 inhibition (µM compound) / 80: 20.7% | % NleB1 inhibition (µM compound) / 160: 20.5%

C[C@@H]1CCCN1c1ccc2c(c1)O[C@@H]1CCN(C1)S2(=O)=O [KUC111139N]
% NleB1 inhibition (µM compound) / 10: 32.7% | % NleB1 inhibition (µM compound) / 20: 34.1% | % NleB1 inhibition (µM compound) / 40: 35.7% | % NleB1 inhibition (µM compound) / 80: 38.7% | % NleB1 inhibition (µM compound) / 160: 40.7%

O=C(c1ccc(F)cc1)N1CCCC2(CC(c3cccc(Cl)c3)=CO2)C1 (centres unmarked) [KUC111570N]
% NleB1 inhibition (µM compound) / 10: 3.2% | % NleB1 inhibition (µM compound) / 20: 3.8% | % NleB1 inhibition (µM compound) / 40: 5.2% | % NleB1 inhibition (µM compound) / 80: 24.2% | % NleB1 inhibition (µM compound) / 160: 42.6%

CCC[C@H]1[C@@H](OC(=O)NCc2ccc(OC)cc2)CC[C@@]23CCCN2C(=O)CCC[C@@H]13 [KUC112136N]
% NleB1 inhibition (µM compound) / 10: 15.7% | % NleB1 inhibition (µM compound) / 20: 22.0% | % NleB1 inhibition (µM compound) / 40: 20.8% | % NleB1 inhibition (µM compound) / 80: 28.5% | % NleB1 inhibition (µM compound) / 160: 30.5%

O=C(Oc1ccc([N+](=O)[O-])cc1)O[C@H]1CC[C@@]23CCCN2C(=O)CCC[C@H]3[C@H]1Cc1ccccc1 [KUC112275N]
% NleB1 inhibition (µM compound) / 10: 2.6% | % NleB1 inhibition (µM compound) / 20: 5.6% | % NleB1 inhibition (µM compound) / 40: 11.0% | % NleB1 inhibition (µM compound) / 80: 24.2% | % NleB1 inhibition (µM compound) / 160: 34.9%
